Where two headings read alike, the source gives them in different places.
Tests used:
Format in all cases: in vivo
[1] = system: intra-gastric pressure in the rat; assay: Increase in intragastric pressure in the rat; settings: conscious restrained starved rats, 40 minute period after administration; for minimal effective dose: Rattus norvegicus, po, 40 min, read-out: minimum dose for activity
Procedure: The compounds of the Examples were tested for pharmacological activity in increasing intra-gastric pressure in the rat. Intragastric pressure changes were recorded from previously starved conscious and restrained rats using a fluid filled catheter inserted into the lumen of the stomach via a permanent gastric fistula. The catheter was connected to a physiological pressure transducer and pressure changes recorded on a hot wire pen recorder. In each animal a pre-dose period of 40 minutes was allowed to obtain a measure of spontaneous activity. An index of activity was obtained by measuring the average height of pressure waves during 10 minute periods. Values for 4 such periods were obtained during assessment of spontaneous activity and for the 40 minute period after the administration of the Compounds. Student "t" test was applied to the difference in average values obtained for spontaneous and post compound activity.

[2] = system: apomorphine induced stereotypy; assay: Inhibition of apomorphine-induced biting in the rat; settings: apomorphine 5 mg/kg sc, compounds administered subcutaneously 15 minutes after apomorphine, stereotypy scored for 90 mins
Procedure: (§1) Compounds were also tested for their ability to inhibit apomorphine induced stereotypy in rodents. Inactivity in these tests may be indicative of a low propensity to produce extra pyramidal side effects in man. The tests used were as follows.
Apomorphine 5 mg/kg sc induces a stereotypic gnawing behaviour in rats which can be measured by a subjective scoring system; score O - animal behaving normally; score 1 - increased locomotion activity with occassional sniffing and licking; score 2 - persistent licking of the bars of the cage with occassional biting; score 3 - more sustained biting; score 4 - intense biting at a particular part of the cage, animal no longer moving about.
Animals are individually placed in wire cages and after being allowed to become acclimatised are injected with apomorphine 5 mg/kg sc. Stereotypy is scored at 10 min intervals for 90 mins after apomorphine. Compounds are administered subcutaneously 15 minutes after the apomorphine.

[3] = system: apomorphine induced stereotypy; assay: Inhibition of apomorphine-induced climbing in the mouse; settings: for ED50: sc, inhibition of climbing induced by apomorphine 1 mg/kg sc
Procedure: as §1
This test is based on that described by Protain, P. et al (1976) Psychopharmacol. 50, 1-6.
Apomorphine 1 mg/kg sc induced mice to climb the wall of a wire cage (inverted food hopper - 11 x 7.5 x 18 cm high). Mice acclimatised in their home cages in groups of 5 are placed under the hoppers immediately after the injection of apomorphine 1 mg/kg SC. At 10, 20 and 30 minutes after injection climbing behaviour scored. The mice are observed for 30 seconds and scored according to the position in which they spend the majority of time; score O - four paws on floor of cage; score 1 - 2 paws only on walls; score 2 - all four paws on wall of cage.
The scores at all 3 times for each mouse are summed for apomorphine only and for apomorphine plus compound groups of mice

Compound	Inhibition of apomorphine-induced biting [2]	further results
COc1cc(N)c(Cl)cc1C(=O)NCC1CCC2CCCCN21 (single isomer, unassigned) [14 (Isomer B), (±) 4-Amino-5-chloro-2-methoxy-N-(3'-indolizidiny-methyl)-benzamide]	inactive	minimal effective dose ([1]; Subcut): 0.2 mg/kg; ED50 [3]: 15 mg/kg
COc1cc(N)c(Cl)cc1C(=O)NCC1CCC2CCCCN2C1 (single isomer, unassigned) [2 (Isomer B), (±) 4-Amino-5-chloro-2-methoxy-N-(3'-quinolizidinyl-methyl)-benzamide]	inactive	minimum dose for activity ([1]; Subcut): 5.0 mg/kg; minimum dose for activity ([1]; oral): 5.0 mg/kg
COc1cc(N)c(Cl)cc1C(=O)NCC1CCCC2CCCCN2C1 (racemic) [Example 8, (±) 4-Amino-5-chloro-2-methoxy-N-[3'-(1'-azabicyclo[5,4, O]-hendecyl-methyl)]-benzamide]	inactive	–
COc1cc(N)c(Cl)cc1C(=O)NCC1CCC2CCCCN21 (single isomer, unassigned) [Example 14 (Isomer A), (±) 4-Amino-5-chloro-2-methoxy-N-(3'-indolizidiny-methyl)-benzamide]	inactive	ED50 ([3]; Mus musculus, read-out: ED50): 20 mg/kg
COc1cc(N)c(Cl)cc1C(=O)NCC1CCCN2CCCCC12 (single isomer, unassigned) [4 (Isomer B), (±) 4-Amino-5-chloro-2-methoxy-N-(1'-guinolizidinyl-methyl)-benzamide]	inactive	–
COc1cc(N)c(Cl)cc1C(=O)NCC1CCCN2CCCCC12 (single isomer, unassigned) [Example 4 (Isomer A), (±) 4-Amino-5-chloro-2-methoxy-N-(1'-guinolizidinyl-methyl)-benzamide]	inactive	–
COc1cc(N)c(Cl)cc1C(=O)NCC1CC2CCCCN2C1 (racemic) [Example 12, (±) 4-Amino-5-chloro-2-methoxy-N-(2'-indolizidinyl-methyl)-benzamide]	inactive	–
COc1cc(N)c(Cl)cc1C(=O)NCC1CCC2CCCCN2C1 (single isomer, unassigned) [Example 2 (Isomer A), (±) 4-Amino-5-chloro-2-methoxy-N-(3'-quinolizidinyl-methyl)-benzamide]	inactive	minimal effective dose ([1]; oral): 5 mg/kg; minimum dose for activity ([1]; Subcut): 0.2 mg/kg; Inhibition of climbing ([3]; apomorphine 1 mg/kg sc, climbing scored at 10, 20 and 30 minutes): inactive

— patent publication EP0036269A1, “Substituted benzamides” (BEECHAM GROUP PLC, priority 1980, dated 1981)
